How the values were obtained:
PBMC [1] = assay: Inhibition of LPS-induced TNF-alpha production in rat PBMC
PBMC [2] = assay: Inhibition of LPS-induced TNF-alpha production in human PBMC; format: functional, cell-based

SMILES | IC50 (PBMC [1]) [nM] | IC50 (PBMC [2]) [nM]
O/N=C1\CCC(C2CCCCC2)=C1c1ccc(F)c(F)c1 | 340 | –
O/N=C1\CCC(C2CCCC2)=C1c1ccc(F)cc1 | 460 | –
O/N=C1\CCC(C2CCCC2)=C1c1ccc(F)c(F)c1 | 130 | 260
O/N=C1\CCC(C2CCCC2)=C1c1ccc2c(c1)OCO2 | 350 | –
O/N=C1\CCC(C2CCCC2)=C1c1cccc(O)c1 | 6220 | –
O/N=C1\CCC(C2CCCC2)=C1c1cccc(C(F)(F)F)c1 | 3070 | –
O/N=C1\CCC(C2CCCCC2)=C1c1ccc(F)cc1 | 1240 | –
O/N=C1\CCC(C2CCCCC2)=C1c1ccc(F)c(Cl)c1 | 420 | –
CCCCCC1=C(c2ccc(F)cc2)/C(=N/O)CC1 | 3830 | 4590
CCCCCC1=C(c2ccc(F)c(F)c2)/C(=N/O)CC1 | 3650 | –
CCCCCC1=C(c2cccnc2)/C(=N/O)CC1 | 14100 | –
CCCCC1=C(c2ccc(F)cc2)/C(=N/O)CC1 | 7880 | –
CCCCC1=C(c2ccc3c(c2)OCO3)/C(=N/O)CC1 | 2520 | 2920
CCCC1=C(c2ccc(F)cc2)/C(=N/O)CC1 | 2660 | –
CCCC1=C(c2ccc(F)c(F)c2)/C(=N/O)CC1 | 720 | –
CCC1=C(c2ccc(F)c(F)c2)/C(=N/O)CC1 | 4560 | –
CC1=C(c2ccc(F)c(F)c2)/C(=N/O)CC1 | 48700 | –
COc1ccc(C2CNC(=O)C2)cc1OC1CCCC1 (configuration not stated) [ROLIPRAM] | 270 | 270

From ChEMBL document CHEMBL3286197, “Synthesis and structure-activity relationship of cyclopentenone oximes as novel inhibitors of the production of tumor necrosis factor-α” (Bioorg Med Chem Lett, 2014)
